Experimental data from patent publication US20230235358A1, “HOST DEFENSE SUPPRESSING METHODS AND COMPOSITIONS FOR MODULATING A GENOME” (FLAGSHIP PIONEERING INNOVATIONS VI, LLC, priority 2020, published 2023).

Assays:
[1] = tested on: primary human dermal fibroblasts; test: Gene Writing efficiency (GFP flow cytometry / ddPCR) with BAY 11-7082; format: cell-based; conditions: addition of BAY11
Description: (§1) In this example, primary human dermal fibroblasts (ATCC PCS-201-012) are cultured according to ATCC instructions. Cells are nucleofected (Lonza Nucleofector®) with the following samples: • 1. mRNA encoding Gene Writer polypeptide targeting AAVS1+Gene Writer RNA template carrying a GFP reporter gene • 2. Condition (1) with genetically inactivated Gene Writer polypeptide • 3. Condition (1)+BAY 11-7082 • 4. Condition (1)+BAY 11-7082+IFN-beta
(§2) Gene Writing efficiency is measured from cultured cells 3 days after transfection by flow cytometry to assay the percentage of cells expressing GFP or by digital droplet PCR analysis with primers and probe on the junction between the template sequence and the targeted locus and on reference sequences as previously described (see PCT/US2019/048607). […] In some embodiments, the addition of BAY11 will increase one or both of the expression of the Gene Writer polypeptide, and the stability of the RNA template. In some embodiments, the addition of […] will also reduce cytotoxicity, e.g., cytotoxicity that is due to intracellular immune pathways.

human skin cells = conditions: cited from earlier work
[2] = tested on: primary human dermal fibroblasts; test: Cytotoxicity (PrestoBlue) three days post transfection, Example 3; format: cell-based; conditions: addition of BAY11
Description: as §1, §2

mouse liver = test: LNP-mediated delivery of firefly luciferase mRNA to the mouse liver (luciferase activity of liver homogenate); format: in vivo; conditions: C57BL/6 mice, i.v. 1 mg/kg, 6, 24, 48 hours, FIG. 2
Description: To measure the effectiveness of LNP-mediated delivery of firefly luciferase containing particles to the liver, LNPs were formulated and characterized as described in Example 9 and tested in vitro prior (Example 10) to administration to mice. C57BL/6 male mice (Charles River Labs) at approximately 8 weeks of age were dosed with LNPs via intravenous (i.v.) route at 1 mg/kg. Vehicle control animals were dosed i.v. with 300 μL phosphate buffered saline. Mice were injected via intraperitoneal route with dexamethasone at 5 mg/kg 30 minutes prior to injection of LNPs. Tissues were collected at necropsy at or 6, 24, 48 hours after LNP administration with a group size of 5 mice per time point. Liver and other tissue samples were collected, snap-frozen in liquid nitrogen, and stored at −80° C. until analysis.
Frozen liver samples were pulverized on dry ice and transferred to homogenization tubes containing lysing matrix D beads (MP Biomedical). Ice-cold 1×luciferase cell culture lysis reagent (CCLR) (Promega) was added to each tube and the samples were homogenized in a Fast Prep-24 5G Homogenizer (MP Biomedical) at 6 m/s for 40 seconds. The samples were transferred to a clean microcentrifuge tube and clarified by centrifugation. Prior to luciferase activity assay, the protein concentration of liver homogenates was determined for each sample using the Pierce™ BCA Protein Assay Kit (ThermoFisher Scientific) according to the manufacturer's instructions. Luciferase activity was measured with 200 μg (total protein) of liver homogenate using the luciferase assay reagent (Promega) according to manufacturer's instructions using an i3X SpectraMax plate reader (Molecular Devices). […] Reporter activity by the various formulations followed the ranking LIPIDV005>LIPIDV004>LIPIDV003. RNA expression was transient and enzyme levels returned near vehicle background by 48 hours. Post-administration. This assay validated the use of these ionizable lipids and their respective formulations for RNA systems for delivery to the liver.

| SMILES | Expression of the Gene Writer polypeptide and/or stability of the RNA template [1] | Expression of OCT4 from synthetic mRNA (human skin cells) | Cytotoxicity due to intracellular immune pathways [2] | Reporter (luciferase) activity in liver, ranking of formulations (mouse liver) |
| --- | --- | --- | --- | --- |
| Cc1ccc(S(=O)(=O)/C=C/C#N)cc1 [BAY11, BAY 11-7082] | increase | improve | reduce | – |
| CCCCC/C=C\C/C=C\CCCCCCCC(=O)OCC(COC(=O)CCC(OCCCCCCCC)OCCCCCCCC)COC(=O)OCCCN(CC)CC (stereo not drawn) [LIPIDV003] | – | – | – | LIPIDV005>LIPIDV004>LIPIDV003 |
| CCCCCCCCCOC(=O)CCCCCCCN(CCO)CCCCCCCC(=O)OC(CCCCCCCC)CCCCCCCC [LIPIDV004] | – | – | – | LIPIDV005>LIPIDV004>LIPIDV003 |
| CCCCCCCC(=O)N(CCCN(C)C)C(CCCCCCCCC(=O)OC(CCCCCC)CCCCCC)CCCCCCCCC(=O)OC(CCCCCC)CCCCCC [LIPIDV005] | – | – | – | LIPIDV005>LIPIDV004>LIPIDV003 |
